Key:
[1] = S/N=3 where stated; cited from earlier work
[2] = Description: (§1) Unless and otherwise mentioned, 10 mM and pH 7.2 solution of aq. PBS buffer was used for all spectroscopic studies. All reactive Oxygen species and nitrogen species solutions of 1×10^-2 M were prepared in PBS having pH 7.2 and used with appropriate dilution. All luminescence measurements were done using λEx=550 nm with an emission slit width of 2/2 nm. For all biological studies, 0.6% DMSO in DMEM media was used.
The detection limit was calculated based on the fluorescence titration.

RAW 264.7 cells = assay: MTT assay, in vitro cytotoxicity / cell viability; conditions: read-out: IC50 (MTT cell viability), treated 24 hours
[3] = SF-1 10 μM, 2 mM HOCl, PBS-acetonitrile (9:1, v/v), pH 7.2, 37° C.
Description: Accordingly, all studies are carried out at physiological relevant pH […].
as §1

| Compound | detection limit for HOCl/HClO (literature) [1] [nM] | detection limit for HOCl ([2]; aq. PBS buffer-acetonitrile (9:1, v/v), 3 s method) [nM] | Detection Limit for HOCl (DL=K*Sb1/S, K=3) ([2]; slope 2.50×109, Sb1 3.59) [nM] | enhancement of luminescence intensity with increasing dose of HOCl ([2]; λEm Max 580 nm, λExt 540 nm) [fold] | IC50 (RAW 264.7 cells) [µM] | time to completion of reaction with HOCl [3] [min] |
| --- | --- | --- | --- | --- | --- | --- |
| CC1=CC(C)=[N+]2C1=C(CCc1[nH]c(C)cc1C)c1c(C)cc(C)n1[B-]2(F)F [BClO] | 0.56 | – | – | – | – | – |
| E)-4-(2-(5,5-difluoro-1,7,9-trimethyl-10-phenyl-5H-5λ^4,6λ^4-dipyrrolo[1,2-c:2′,1′-f][1,3,2]diazaborinin-3-yl)vinyl)benzene-1,2-diol [SF-1] | – | 4.3 | 4.3 | 20 | > 150 | ≤ 15 |

Reference: US11319331B2, “Probe for selective detection of hypochlorous acid (HOCl) under physiological condition, and related methods” (Council of Scientific & Industrial Research, priority 2017, dated 2022)
